# Test results published in article PMC11858854, “In Vitro and In Vivo Assessment of Pharmacokinetic Profile of Peramivir in the Context of Inhalation Therapy” (Pharmaceuticals, 2025).
# How the values were obtained:
# [1] = molecular target: T1, human OCT2 (Homo sapiens, UniProt O15244); assay: Uptake study, HEK293 cells overexpressing OCT2; type: in vitro ADME
# T1 construct: host or cells: HEK293 (HEK293-OCT2); control HEK293-MOCK
# T1 sequence (O15244 1-555): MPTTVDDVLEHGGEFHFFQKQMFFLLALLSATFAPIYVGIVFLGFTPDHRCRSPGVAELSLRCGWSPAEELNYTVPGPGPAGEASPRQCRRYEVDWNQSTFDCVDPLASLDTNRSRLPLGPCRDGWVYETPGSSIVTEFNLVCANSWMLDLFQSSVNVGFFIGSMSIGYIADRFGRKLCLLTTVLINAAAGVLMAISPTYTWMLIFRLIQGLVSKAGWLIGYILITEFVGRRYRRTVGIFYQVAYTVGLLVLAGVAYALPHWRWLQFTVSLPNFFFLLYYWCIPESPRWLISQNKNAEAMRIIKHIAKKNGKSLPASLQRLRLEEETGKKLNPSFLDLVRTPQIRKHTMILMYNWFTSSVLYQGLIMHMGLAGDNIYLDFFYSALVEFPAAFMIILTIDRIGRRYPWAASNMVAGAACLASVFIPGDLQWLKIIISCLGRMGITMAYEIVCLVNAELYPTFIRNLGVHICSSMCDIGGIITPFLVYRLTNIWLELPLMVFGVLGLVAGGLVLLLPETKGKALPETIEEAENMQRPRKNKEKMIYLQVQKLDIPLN
# Experimental: (§1) All cells (HEK293-MOCK, HEK293-OCT1, HEK293-OCT2, MDCK-MOCK, MDCK-OCTN1, and MDCK-OCTN2) were cultured in DMEM medium supplemented with 10% FBS and PS (100 U/mL), at 37 °C in a humidified 5% CO2 incubator. Cells were seeded on 24-well plates at a density of 1 × 10^4 cells/well. For the uptake assay, the DMEM media were removed, and the cells were washed with pre-warmed Hank’s buffer three times (1 mL/well). Subsequent addition of inhibitor-free/inhibitor-containing buffer was pre-incubated for 30 min at 37 °C prior to the initiation of the uptake experiment. After the pre-incubating buffer was removed, 200 μL of pre-warmed test drugs solution (Hank’s buffer containing 10 µM and 50 µM peramivir) or a mixture of test drugs and inhibitor was added into each well, and the plates were incubated at 37 °C for 5 min. At the end of incubation, cells were washed and lysed as described above. The cell lysate was collected and stored at −40 °C for LC-MS/MS analysis and protein measurement. The negative control (MOCK cells) and positive control were included simultaneously.
# [2] = system: overexpressed cell lines (uptake transporters); assay: Uptake study by overexpression cell lines, 10 μM substrate; type: in vitro ADME; conditions: substrate concentration 10 μM
# Experimental: as §1
# [3] = system: Calu-3 cell model; assay: Bidirectional transport, Calu-3 air-liquid culture model; conditions: Calu-3, 2 μM, Mean ± SD, n = 3
# [4] = molecular target: human MDR1 (P-gp) (Homo sapiens, UniProt P08183); assay: Permeability assay, LLC-PK1-MDR1 cells overexpressing P-gp
# Experimental: When the cell transport system was mature in culture, experiments were performed. […] When assessing permeability in basolateral to apical (B-A) direction, 100 μL of pre-warmed Buffer B and 600 μL of pre-warmed test solutions were added to the apical and basolateral compartments, respectively. The Transwells® were placed in an incubator at 37 °C and 5% CO2 for a duration of 2 h. At the end of the incubation period, the samples in the apical and basolateral sides were collected separately and were briefly kept at a temperature of −40 °C for LC-MS/MS analysis. […] The cells were transferred to Transwell® plates (Corning, NY, USA) at a density of 2 × 10^4 cells/well with 200 μL of cell suspension per well, while 850 μL of complete medium was added to the basolateral chamber. […] The samples were collected separately and were briefly kept at a temperature of −40 °C for LC-MS/MS analysis.
# [5] = LLC-PK1-MDR1, 2 μM, Mean ± SD, n = 3
# human MDR1 (P-gp), sequence (P08183 whole entry): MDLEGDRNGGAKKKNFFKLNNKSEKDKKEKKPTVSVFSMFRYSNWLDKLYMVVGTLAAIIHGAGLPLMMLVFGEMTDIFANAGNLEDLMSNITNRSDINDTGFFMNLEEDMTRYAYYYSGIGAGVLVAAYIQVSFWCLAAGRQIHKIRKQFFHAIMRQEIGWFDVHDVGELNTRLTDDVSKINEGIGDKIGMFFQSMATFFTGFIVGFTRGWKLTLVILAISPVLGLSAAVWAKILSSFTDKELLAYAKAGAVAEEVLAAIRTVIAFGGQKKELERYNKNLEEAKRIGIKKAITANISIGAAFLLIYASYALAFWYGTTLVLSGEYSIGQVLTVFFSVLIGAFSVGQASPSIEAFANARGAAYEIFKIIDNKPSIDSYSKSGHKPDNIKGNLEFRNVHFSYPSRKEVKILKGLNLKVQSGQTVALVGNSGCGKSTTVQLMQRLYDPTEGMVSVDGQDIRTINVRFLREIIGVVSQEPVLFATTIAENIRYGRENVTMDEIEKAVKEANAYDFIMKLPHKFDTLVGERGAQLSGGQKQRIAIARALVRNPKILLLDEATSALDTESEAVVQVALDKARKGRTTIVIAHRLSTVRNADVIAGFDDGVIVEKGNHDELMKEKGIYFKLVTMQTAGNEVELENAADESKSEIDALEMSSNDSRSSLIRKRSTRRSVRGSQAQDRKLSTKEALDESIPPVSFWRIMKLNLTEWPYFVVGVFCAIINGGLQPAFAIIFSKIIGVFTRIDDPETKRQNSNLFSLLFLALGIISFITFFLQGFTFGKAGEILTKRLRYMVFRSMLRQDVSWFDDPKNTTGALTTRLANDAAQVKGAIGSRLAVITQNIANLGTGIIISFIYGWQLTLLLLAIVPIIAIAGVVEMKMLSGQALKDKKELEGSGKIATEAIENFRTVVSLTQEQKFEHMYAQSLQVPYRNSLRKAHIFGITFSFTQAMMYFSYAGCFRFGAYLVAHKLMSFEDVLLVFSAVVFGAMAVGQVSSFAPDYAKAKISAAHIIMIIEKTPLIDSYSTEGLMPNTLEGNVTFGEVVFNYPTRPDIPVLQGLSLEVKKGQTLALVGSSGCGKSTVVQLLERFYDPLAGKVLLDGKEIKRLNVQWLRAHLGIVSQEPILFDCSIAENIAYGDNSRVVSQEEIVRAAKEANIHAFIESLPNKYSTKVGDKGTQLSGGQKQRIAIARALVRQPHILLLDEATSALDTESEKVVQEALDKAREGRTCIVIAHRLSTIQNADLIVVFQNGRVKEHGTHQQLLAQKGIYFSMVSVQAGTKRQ
smiles,measurement,setting,value
CCC(CC)[C@H](NC(C)=O)[C@@H]1[C@H](O)[C@@H](C(=O)O)C[C@H]1N=C(N)N [Peramivir],OCT2 substrate status,[1]; HEK293-OCT2,does not act as a substrate
same,transporter-mediated uptake ratio (UR),"[1]; HEK293-OCT2, 50 μM",< 1
same,inhibition ratio (IR),"[1]; HEK293-OCT2, 50 μM, inhibitor verapamil (200 μM)",exceeding 98.51%
same,concentration of peramivir in uptake experiment (below the detection limit),[2],< 2 nM
same,Papp A-B,[3],BLQ
same,Papp B-A,[3],BLQ
same,Papp A-B,[4]; [5],BLQ
same,Papp B-A,[4]; [5],0.23 ± 0.03 ×10−6 cm/s
same,P-gp transporter substrate status,[4]; Papp(B→A) LLC-PK1-MDR1 vs LLC-PK1-MOCK,not a substrate of the P-gp transporter
